Measurements as given in patent US6572865B1, “Mycobacterium tuberculosis DNA sequences encoding immunostimulatory peptides and methods for using same” (priority 1995, dated 2003).
Where two headings read alike, the source gives them in different places.

Tests used:
[1] = tested on: T-cells from tuberculin-positive people; assay type: cell-based, human
[2] = tested on: immune T-cells; assay type: cell-based, mice; conditions: Table 2; background subtracted; up to ten μg fusion peptide
[3] = 5×10^5 mononuclear cells, up to 1 μg/mL peptide or up to 50 ng/mL PhoA fusion protein
[4] = up to 1 μg/mL peptide or up to 50 ng/mL PhoA fusion protein, background 103.3

EYSRFVGDVFGAPLAME [CD-2/1/96/10, synthetic peptide from AciI#2-827]
Concentration of INF-γ [1, 3]: 134.0 pg/mL | Concentration of INF-γ minus background [1, 4]: 30.7 pg/mL

GKTYDAYFTDAGGITPG [HPI1-3/2, synthetic peptide from HinP#1-3]
Concentration of INF-γ [1, 3]: 136.3 pg/mL | Concentration of INF-γ minus background [1, 4]: 23.0 pg/mL

GRAELSSIVVLLTNNTA [CD-2/1/96/14, synthetic peptide from AciI#2-827]
Concentration of INF-γ [1, 3]: 310.2 pg/mL | Concentration of INF-γ minus background [1, 4]: 206.9 pg/mL

PhoA control: PhoA protein employed as a negative control [reference compound]
Concentration of INF-γ ([1]; control at 10 μg/mL): 26.7 pg/mL | Concentration of INF-γ minus background ([1]; control at 10 μg/mL): 0 pg/mL

SRFVGDVFGAPLAMESL [CD-2/1/96/11, synthetic peptide from AciI#2-827]
Concentration of INF-γ [1, 3]: 141.6 pg/mL | Concentration of INF-γ minus background [1, 4]: 38.3 pg/mL

VTDNPAWYRLTKFFGKL [CD-2/1/96/1, synthetic peptide from AciI#2-827]
Concentration of INF-γ [1, 3]: 256.6 pg/mL | Concentration of INF-γ minus background [1, 4]: 153.3 pg/mL

WSEYSRFVGDVFGAPLA [CD-2/1/96/9, synthetic peptide from AciI#2-827]
Concentration of INF-γ [1, 3]: 187.6 pg/mL | Concentration of INF-γ minus background [1, 4]: 84.3 pg/mL

YDAYFTDAGGITPGNSV [HPI1-3/3, synthetic peptide from HinP#1-3]
Concentration of INF-γ [1, 3]: 264.2 pg/mL | Concentration of INF-γ minus background [1, 4]: 160.9 pg/mL

B1: AciI#2-874: AP-fusion clone; SEQ ID NO: 73; MTCY190.20 (protein)
chain: VMPSSIGLVVGSMLWRQINRLFGVRGLCWAAHCSTPLCAAVHGGRVVWAVGSRLGVLHGVPAGYGGRSNGGRRIDIVDQRPRAR
notes: AP-fusion clone; MTCY190.20
INF: pg/mL of INF-γ produced using fusion to stimulate immune T-cells [2]: 2,171 pg/mL

B2: AciI#3-243: AP-fusion clone; SEQ ID NO: 112; MTCY50.02 (protein)
chain: AGGCGACGGTTGGCACCACCACGAGTGAGTCAGGCAGGAGCCCCGCCACGTTGCGGACGGCGCGAATCTTCGCCTGTGGCTCACCGACTTTCCGCCCAACTTCAACGATCTTGCACATGGACGGCAAGAACGCCGAGGTCGCG
notes: AP-fusion clone; MTCY50.02
INF: pg/mL of INF-γ produced using fusion to stimulate immune T-cells [2]: 2,857 pg/mL
